This note sets out measurements from patent US8030518B2, “1,4 diamino bicyclic retigabine analogues as potassium channel modulators” (Valeant Pharmaceuticals International, priority 2006, dated 2011).

Assay [1] concerns maximal electroshock seizure. Briefly: mouse maximal electroshock seizure (MES) test. Details: key: A: active; B: inactive. The class given is in vivo. To be noted: ip dosing of 12.5 mg/kg. The source says:
The MES testing protocol is based on procedures established at the National Institute of Neurological Disorders and Stroke in conjunction with the Anticonvulsant Screening Program (ASP) at the University of Utah (White, H. S., Woodhead, J. H., Wilcox, K. S., Stables, J. P., Kupferberg, H. J and Wolf, H. H. 2002. “General Principles: Discovery and Preclinical Development of Antiepileptic Drugs,” in Antiepileptic Drugs, 5th Edition, R. H. Levy, ed.; R. H. Mattson, B. S. Meldrum, and E. Perucca. Philadelphia, Lippincott Williams & Wilkins.), The goal of the test is to rapid identify and characterize the in vivo anticonvulsant activity of any compounds that have been shown active in PC-12 cellular based Rb^+ efflux assay.
Adult male CF-1 albino mice (18-25 g, Charles River Laboratories) are […] used for MES screening of compounds. Male Sprague-Dawley albino rats (100-125 g, Charles River Laboratories) are also used to test anticonvulsant compounds. Animals are permitted to rest and recover from transit for at least 48 hr prior to experimentation. Animals are used for AED testing only once. In some instances, the animals can be anesthetized prior to blood collection or whole brain extraction for pharmacokinetic assay. All animals are maintained and handled as outlined in standard animal care guidelines.
In the experiments, testing compounds are prepared as suspensions in 0.5% methyl cellulose (Sigma, Cat # M0512, Viscosity 4000 cP at 20° C.) in water, regardless of solubility. Dry powder compounds are initially ground with a glass rod in a test tube in several drops of methyl cellulose to create a paste and to break down any large chunks. After several minutes of grinding, the volume of the suspension is increased to the final concentration desired. The suspension is then sonicated using a Branson sonicator model 3510 in a water bath at room temperature for 15 minutes. Compound suspensions are further vortexed prior to animal dosing. In some of the cases, DMSO is used to initially solubilize compounds in small volumes and then this solution is added to the 0.5% methyl cellulose solution, in order to create more even and less aggregated compound suspensions. The final concentration of DMSO is 3.75%, an amount with no apparent toxicity or neuroprotective effects in our usual rotarod and MES tests. Methyl cellulose/DMSO compound suspensions are identically prepared for intraperitoneally (i.p.)dosing to mice or orally (p.o.) dosing to rats.
Initially the animals are weighed with an electronic scale and then marked. Data recording sheets are generated for each compound assessment. Mice or rats are dosed with the compound suspension at 0.01 mL/g of body weight. The typical injection volume range is between 180-250 μl for mice. Compounds are dosed by i.p. to mice using a 25 or 22 gauge needle, depending on the viscosity of the suspension. Rats are p.o. dosed using a flexible feeding tube, typically starting at a compound dose of 5 mg/kg.
A Rodent Electroconvulsive Stimulator (Model 200, Hamit-Darvin-Freesh, Snow Canyon Clinic, Ivins, Utah) is used for MES testing. A 60-Hz alternating current (50 mA for mice; 150 mA for rats) is delivered for 0.2 seconds through corneal electrodes to the mice. A drop of 0.5% tetracaine (Sigma, Cat. # T-7508) solution is placed on the eye prior to current delivery. The electrodes are subsequently placed gently onto the eyes of the animal and the electrical shock is initiated by triggering through a foot-pedal activator. The animals are restrained by hand and gently released as the shock is delivered and the seizure commences. Animals are monitored for hind limb tonic extension as the end point for this test. Current delivery is recorded as a measure of overall seizure-induction potential. Electrical current delivery can vary from approximately 30-55 mA (mice) or 90-160 mA (rats) depending on impedance in the animal and quality of the current delivery (i.e. correct placement of the electrodes on the cornea). […]

A further assay concerns the target T1, KCNQ2/3 heteromultimers (Rattus norvegicus, UniProt O88943+O88944).
T1 construct: endogenous in cells; host or cells: PC-12 cells differentiated with NGF-7s; no transfection described
Briefly: cell-based Rb+ efflux assay in PC-12 cells. To be noted: Rb+ efflux cellular assay. Here is the method: Compounds of this invention formula were evaluated for activity toward potassium channels in a cell-based Rb^+ efflux assay. This cellular bioassay is believed to faithfully represent the M channel activities identified with KCNQ2/3 heteromultimers. […] Additionally, antiseizure activity in vivo was evaluated in a mouse maximal electroshock seizure (MES) model, and neurotoxicities were determined from a rotorod neurocognitive motor impairment model and open field observation.
PC-12 cells were grown at 37° C. and 5% CO2 in DMEM/F12 Medium (Dulbecco's Modified Eagle Medium with Nutrient Mix F-12, available from Invitrogen of Carlsbad, Calif.), supplemented with 10% horse serum, 5% fetal bovine serum, 2 mM glutamine, 100 U/ml penicillin, and 100 U/ml streptomycin. They were plated in poly-D-lysine-coated 96-well cell culture microplates at a density of 40,000 cells/well and differentiated with 100 ng/ml NGF-7s for 2-5 days. For the assay, the medium was aspirated, and the cells were washed once with 0.2 ml wash buffer (25 mM HEPES, pH 7.4, 150 mM NaCl, 1 mM MgCl2, 0.8 mM NaH2PO4, 2 mM CaCl2). The cells were then loaded with 0.2 ml Rb^+ loading buffer (wash buffer plus 5.4 mM […], 5 mM glucose) and incubated at 37° C. for 2 h. Attached cells were washed quickly three times with buffer (same as Rb^+ loading buffer, but containing 5.4 mM KCl instead of RbCl) to remove extracellular Rb^+. Immediately following the wash, 0.2 ml of depolarization buffer (wash buffer plus 15 mM KCl solution) with or without compounds was added to the cells to activate efflux of potassium ion channels. After incubation for 10 min at room temperature, the supernatant was carefully removed and collected. Cells were lysed by the addition of 0.2 ml of lysis buffer (depolarization buffer plus 0.1% Triton X-100) and the cell lysates were also collected. If collected samples were not immediately analyzed for Rb^+ contents by atomic absorption spectroscopy (see below), they were stored at 4° C. without any negative effects on subsequent Rb^+ analysis.
The concentrations of Rb^+ in the supernatants (Rb^+Sup) and the cell lysates (Rb^+Lys) were quantified using an ICR8000 flame atomic absorption spectrometer (Aurora Biomed Inc., Vancouver, B.C.) under conditions defined by the manufacturer. Samples 0.05 ml in volume were processed automatically from microtiter plates by dilution with an equal volume of Rb^+ sample analysis buffer and injection into an air-acetylene flame. The amount of Rb^+ in the sample was measured by absorption at 780 nm using a hollow cathode lamp as light source and a PMT detector. A calibration curve covering the range 0-5 mg/L Rb^+ in sample analysis buffer was generated with each set of plates. The percent Rb^+ efflux (F) was defined by F=[Rb^+Sup/(Rb^+Sup+Rb^+Lys)]×100%. […] The efflux (F) and compound concentration relationship was plotted to calculate an EC50 value, a compound's concentration for 50% of maximal Rb^+ efflux. Seizure Model Tests

With `Cc1cc2c(c(C)c1NC(=O)CC(C)(C)C)CCCC2Nc1ccc(Cl)c(Cl)c1` (stereo not shown) [Example 6, N-(1,3-dimethyl-5-(3,4-dichlorophenylamine)-5,6,7,8-tetrahydronaphthalen-2-yl)-3,3-dimethylbutanamide], the “Mouse MES test” value in assay [1] was “B”. At KCNQ2/3 heteromultimers, this compound came in with an EC50 of 1 to 10 nM.

With `Cc1cc2c(c(C)c1NC(=O)CC(C)(C)C)CCC2Nc1cccc(Cl)c1` (stereo not shown) [Example 19, N-(4,6-dimethyl-1-(3-chlorophenylamino)-2,3-dihydro-1H-inden-5-yl)-3,3-dimethylbutanamide], the “Mouse MES test” value in assay [1] was “A”. The 50% effective concentration (EC50) on KCNQ2/3 heteromultimers was in the range of 1 to 10 nM. In the same order, the values of `Cc1cc2c(c(C)c1NC(=O)CC(C)(C)C)CCCC2Nc1ccc(F)cc1` (single isomer, unassigned; (+)) [Example 4, (+)N-(5-(4-fluorophenylamino)-1,3-dimethyl-5,6,7,8-tetrahydronaphthalen-2-yl)-3,3-dimethylbutanamide] are “A” and 10 to 50 nM. In the same order, the values of `Cc1cc2c(c(C)c1NC(=O)CC(C)(C)C)CCC2Nc1ccc(Cl)cc1` (stereo not shown) [Example 17, N-(4,6-dimethyl-1-(4-chlorophenylamino)-2,3-dihydro-1H-inden-5-yl)-3,3-dimethylbutanamide] are “A” and at most 1 nM. Turning to `Cc1cc2c(c(C)c1NC(=O)CC(C)(C)C)CCC2Nc1ccc(C(F)(F)F)cc1` (single isomer, unassigned; (+)) [Example 16, (+) N-(4,6-dimethyl-1-(4-(trifluoromethyl)phenylamino)-2,3-dihydro-1H-inden-5-yl)-3,3-dimethylbutanamide], the “Mouse MES test” value in assay [1] is recorded as “A”. Besides, the EC50 at KCNQ2/3 heteromultimers fell in the range of 1 to 10 nM.

As to `CCOC(=O)Nc1ccc2c(c1)CCC2Nc1ccc(F)cc1` (stereo not shown) [Example 25, Ethyl 1-(4-fluorophenylamino)-2,3-dihydro-1H-inden-5-yl-carbamate], on KCNQ2/3 heteromultimers, the EC50 was over 500 nM. Regarding `Cc1cc2c(c(C)c1NC(=O)CC(C)(C)C)CCC2Nc1ccc(Br)cc1` (stereo not shown) [Example 18, N-(4,6-dimethyl-1-(4-bromophenylamino)-2,3-dihydro-1H-inden-5-yl)-3,3-dimethylbutanamide], in assay [1], the “Mouse MES test” value is reported as “A”. The same compound came in with an EC50 at KCNQ2/3 heteromultimers of at most 1 nM.

In the case of `Cc1cc2c(c(C)c1NC(=O)CC(C)(C)C)CCC2Nc1cc(F)cc(F)c1` (stereo not shown) [Example 22, N-(4,6-dimethyl-1-(3,5-difluorophenylamino)-2,3-dihydro-1H-inden-5-yl)-3,3-dimethylbutanamide], in assay [1], the “Mouse MES test” value is “A”. At KCNQ2/3 heteromultimers, this compound showed an EC50 of 1 to 10 nM. Consider `Cc1cc2c(c(C)c1NC(=O)CC(C)(C)C)CCCC2Nc1cc(F)cc(F)c1` (stereo not shown) [Example 10, N-(1,3-dimethyl-5-(3,5-difluorophenylamino)-5,6,7,8-tetrahydronaphthalen-2-yl)-3,3-dimethylbutanamide], for which, in assay [1], the “Mouse MES test” value is “A”. At KCNQ2/3 heteromultimers, this compound registered an EC50 of 1 to 10 nM.

Take `Cc1cc2c(c(C)c1NC(=O)CC(C)(C)C)CCCC2Nc1cccc(Cl)c1` (stereo not shown) [Example 9, N-(1,3-dimethyl-5-(3-chlorophenylamino)-5,6,7,8-tetrahydronaphthalen-2-yl)-3,3-dimethylbutanamide]: the “Mouse MES test” value in assay [1] is given as “A”. Also, the EC50 on KCNQ2/3 heteromultimers lay within 1 to 10 nM. Regarding `Cc1cc2c(c(C)c1NC(=O)CC(C)(C)C)CCC2Nc1ccc(Cl)c(Cl)c1` (stereo not shown) [Example 20, N-(4,6-dimethyl-1-(3,4-dichlorophenylamine)-2,3-dihydro-1H-inden-5-yl)-3,3-dimethylbutanamide], the “Mouse MES test” value in assay [1] is “A”. In addition, on KCNQ2/3 heteromultimers, the EC50 was at most 1 nM.

Take `Cc1cc2c(c(C)c1NC(=O)CC(C)(C)C)CCC2Nc1ccc(F)c(F)c1` (stereo not shown) [Example 21, N-(4,6-dimethyl-1-(3,4-difluorophenylamino)-2,3-dihydro-1H-inden-5-yl)-3,3-dimethylbutanamide]: the “Mouse MES test” value in assay [1] was “A”. At KCNQ2/3 heteromultimers, this compound had an EC50 of 1 to 10 nM.

Turning to `Cc1cc2c(c(C)c1NC(=O)CC(C)(C)C)CCC2Nc1ccc(F)nc1` (stereo not shown) [Example 23, N-(1-(6-fluoropyridin-3-ylamino)-4,6-dimethyl-2,3-dihydro-1H-inden-5-yl)-3,3-dimethylbutanamide], the “Mouse MES test” value in assay [1] is “A”. At KCNQ2/3 heteromultimers, the EC50 fell in the range of 50 to 500 nM. `Cc1cc2c(c(C)c1NC(=O)CC(C)(C)C)CCCC2Nc1ccc(Br)cc1` (stereo not shown) [Example 8, N-(1,3-dimethyl-5-(4-bromophenylamino)-5,6,7,8-tetrahydronaphthalen-2-yl)-3,3-dimethylbutanamide] displayed an EC50 at KCNQ2/3 heteromultimers of 1 to 10 nM. As for `Cc1cc2c(c(C)c1NC(=O)CC(C)(C)C)CCCC2Nc1ccc(F)cc1` (stereo not shown) [Example 2, N-(5-(4-fluorophenylamino)-1,3-dimethyl-5,6,7,8-tetrahydronaphthalen-2-yl)-3,3-dimethylbutanamide], the “Mouse MES test” value in assay [1] is listed as “A”. The compound also returned an EC50 on KCNQ2/3 heteromultimers of 10 to 50 nM.

Take `Cc1cc2c(c(C)c1NC(=O)CC(C)(C)C)CCCC2Nc1ccc(C(F)(F)F)cc1` (stereo not shown) [Example 5, N-(1,3-dimethyl-5-(4-(trifluoromethyl)phenylamino)-5,6,7,8-tetrahydronaphthalen-2-yl)-3,3-dimethylbutanamide]: the “Mouse MES test” value in assay [1] is “A”. At KCNQ2/3 heteromultimers, this compound had an EC50 of 1 to 10 nM. `Cc1c(Br)c2c(c(C)c1NC(=O)CC(C)(C)C)CCCC2Nc1ccc(C(F)(F)F)cc1` (stereo not shown) yielded an EC50 at KCNQ2/3 heteromultimers of over 500 nM.
